Laboratory results reported in patent US20250042922A1, “KRAS MODULATING COMPOUNDS” (priority 2023, published 2025).
Where two headings read alike, the source gives them in different places.

Key:
GDP-loaded KRAS-G12C = GDP-loaded KRAS-G12C (Homo sapiens, UniProt P01116, G12C); test: KRAS (GDP) biochemical TR-FRET probe displacement assay, G12C; assay type: binding; conditions: 2 hours
Procedure: (§1) Compounds are tested for binding to GDP-loaded wild-type KRAS (WT), KRAS-G12C, KRAS-G12D, and KRAS-G12V in a 384-well assay format using a TR-FRET probe displacement assay in buffer consisting of 50 mM Hepes (pH 7.4), 150 mM NaCl, 5 mM MgCl2 and 0.005% Tween-20. […] Compounds are serially diluted (1:3) in DMSO. The LabCyte ECHO Acoustic dispenser was used to pre-spot the assay plates (384-well Non-Binding Surface plates, Corning, Catalog #3824) with 50 nL of compound. 5 μL of 2X enzyme concentration is added to the pre-spotted plates and incubated for 30 minutes before adding 5 μL of 2X concentration of Eu-streptavidin and Cy-5 labelled probe (10 μL final reaction volume). The plates are incubated at room temperature for 2 hours before measuring TR-FRET ratio (665 nm/615 nm) on the Envision multimode plate reader. The ratios are normalized to a positive (saturating concentration of known inhibitor) and negative (DMSO) control and plotted against the log of compound concentration.

GDP-loaded KRAS-G12D = GDP-loaded KRAS-G12D (Homo sapiens, UniProt P01116, G12D); test: KRAS (GDP) biochemical TR-FRET probe displacement assay, G12D; assay type: binding; conditions: 2 hours
Procedure: as §1

[1] = biological target: GDP-loaded wild-type KRAS (WT) (Homo sapiens, UniProt P01116); test: KRAS (GDP) biochemical TR-FRET probe displacement assay, WT; assay type: binding; conditions: 2 hours
Procedure: as §1

[2] = test system: cellular pERK in MIA-PaCa-2 (KRAS-G12C) cells; test: Cell based pERK assay, MIA-PaCa-2; conditions: Homo sapiens, read-out: MIAPaCa2 pERK EC50
Outline: (§2)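 Cells seeded overnight (5000 AsPC-1 or 7500 others per well; RPMI/10% FBS, DMEM/10% FBS for MIA-PaCa-2), treated with 1:3 serial dilutions for 2 h at 37 °C. Phospho-ERK1/2 (Thr202/Tyr204) measured by HTRF (665/615 nm) after overnight lysis, normalized to DMSO and saturating known-inhibitor controls.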

[3] = test system: cellular pERK in NCI-H441 (KRAS-G12V) cells; test: Cell based pERK assay, NCI-H441; conditions: Homo sapiens, read-out: H441 PERK EC50
Outline: as §2

[4] = test system: cellular pERK in Kuramochi (WT KRAS) cells; test: Cell based pERK assay, Kuramochi; conditions: read-out: Kuramochi pERK EC50
Outline: as §2

GDP-loaded KRAS-G12V = GDP-loaded KRAS-G12V (Homo sapiens, UniProt P01116, G12V); test: KRAS (GDP) biochemical TR-FRET probe displacement assay, G12V; assay type: binding; conditions: 2 hours
Procedure: as §1

[5] = test system: cellular pERK in ASPC-1 (KRAS G12D) cells; test: Cell based pERK assay, ASPC-1; conditions: Homo sapiens, read-out: AsPC1 pERK EC50
Outline: as §2

[6] = MIA-PaCa-2 (KRAS-G12C), 2 hours incubation, HTRF phospho-ERK1/2
[7] = NCI-H441 (KRAS-G12V), 2 hours incubation, HTRF phospho-ERK1/2
[8] = Kuramochi (WT KRAS), 2 hours incubation, HTRF phospho-ERK1/2
[9] = ASPC1, ASPC-1 (KRAS G12D), 2 hours incubation, HTRF phospho-ERK1/2

Chain of GDP-loaded KRAS-G12D (P01116 1-188 isoform P01116-2 G12D): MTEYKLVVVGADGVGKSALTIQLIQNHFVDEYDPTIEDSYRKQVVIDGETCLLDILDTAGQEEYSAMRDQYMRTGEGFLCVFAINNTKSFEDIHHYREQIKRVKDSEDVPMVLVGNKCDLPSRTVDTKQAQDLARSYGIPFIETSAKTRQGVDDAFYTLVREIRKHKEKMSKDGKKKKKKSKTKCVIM
Chain of GDP-loaded wild-type KRAS (WT) (P01116 1-188 isoform P01116-2): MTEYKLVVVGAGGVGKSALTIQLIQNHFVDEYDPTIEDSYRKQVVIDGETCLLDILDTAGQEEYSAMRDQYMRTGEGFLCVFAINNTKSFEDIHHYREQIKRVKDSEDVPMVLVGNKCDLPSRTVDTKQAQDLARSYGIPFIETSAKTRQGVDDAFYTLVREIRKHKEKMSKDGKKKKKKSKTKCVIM
Chain of GDP-loaded KRAS-G12C (P01116 1-188 isoform P01116-2 G12C): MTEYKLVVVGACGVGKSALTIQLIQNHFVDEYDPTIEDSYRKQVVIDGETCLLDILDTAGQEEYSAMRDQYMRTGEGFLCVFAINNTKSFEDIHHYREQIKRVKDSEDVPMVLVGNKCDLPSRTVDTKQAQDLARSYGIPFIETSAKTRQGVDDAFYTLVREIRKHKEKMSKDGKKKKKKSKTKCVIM
Chain of GDP-loaded KRAS-G12V (P01116 1-188 isoform P01116-2 G12V): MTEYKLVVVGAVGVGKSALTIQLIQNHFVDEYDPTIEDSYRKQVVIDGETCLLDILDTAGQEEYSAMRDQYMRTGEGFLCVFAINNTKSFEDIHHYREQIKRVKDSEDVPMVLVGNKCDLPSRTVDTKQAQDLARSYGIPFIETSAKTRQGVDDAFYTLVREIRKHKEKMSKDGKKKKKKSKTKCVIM

Row | Compound | IC50 (GDP-loaded KRAS-G12C) | IC50 (GDP-loaded KRAS-G12D) | IC50 [1] | EC50 [2, 6] | EC50 [3, 7] | EC50 [4, 8] | IC50 (GDP-loaded KRAS-G12V) | EC50 [5, 9] | EC50 ([2]; MIA PaCa-2, 2 h) | EC50 ([3]; NCI-H441, 2 h) | EC50 ([4]; 2 h) | EC50 ([5]; ASPC1, 2 h)
1 | Cc1c(F)c(N)cc(-c2nc3c4c(nc(OC[C@@]56CCCN5C[C@H](F)C6)nc4c2F)N2C[C@@]4(F)CC[C@](F)(N4)[C@H]2CCC3)c1C(F)(F)F [Example 4-4] | 46.7 nM | > 100 nM | 25.8 nM | 59.4 nM | 884 nM | 15.4 nM | 45.1 nM | 175 nM |  |  |  | 
2 | C[C@H]1Cc2nc(-c3cc(O)cc4ccc(F)c(F)c34)c(F)c3nc(OCC45CCCN4CCC5)nc(c23)N2C[C@@]3(F)CC[C@](F)(N3)[C@H]12 [Example 4-12, 5,6-difluoro-4-((5S,5aS,6R,9S)-1,6,9-trifluoro-5-methyl-12-((tetrahydro-1H-pyrrolizin-7a(5H)-yl)methoxy)-4,5,5a,6,7,8,9,10-octahydro-3,10a,11,13,14-pentaaza-6,9-methanonaphtho[1,8-ab]eptalene-2-yl)naphthalen-2-ol] | 0.172 nM | 1.16 nM | 0.086 nM |  |  |  | 0.353 nM |  | 0.944 nM | 3.7 nM | 1.71 nM | 29 nM
3 | Cc1c(F)c(N)cc(-c2nc3c4c(nc(OCC56CCCN5CCC6)nc4c2F)N2C[C@@]4(F)CC[C@](F)(N4)[C@@H]2[C@@H](C)C3)c1C(F)(F)F [Example 4-13, 2-fluoro-3-methyl-5-((5S,5aS,6R,9S)-1,6,9-trifluoro-5-methyl-12-((tetrahydro-1H-pyrrolizin-7a(5H)-yl)methoxy)-4,5,5a,6,7,8,9,10-octahydro-3,10a,11,13,14-pentaaza-6,9-methanonaphtho[1,8-ab]heptalen-2-yl)-4-(trifluoromethyl)aniline] | 3.81 nM | 20.2 nM | 0.411 nM | 5.66 nM | 18.3 nM | 2.77 nM | 8.04 nM | 109 nM |  |  |  | 
4 | C[C@H]1Cc2nc(-c3ccc(F)c4sc(N)c(C#N)c34)c(F)c3nc(OCC45CCCN4CCC5)nc(c23)N2C[C@@]3(F)CC[C@](F)(N3)[C@H]12 [Example 4-14, 2-amino-7-fluoro-4-((5S,5aS,6R,9S)-1,6,9-trifluoro-5-methyl-12-((tetrahydro-1H-pyrrolizin-7a(5H)-yl)methoxy)-4,5,5a,6,7,8,9,10-octahydro-3,10a,11,13,14-pentaaza-6,9-methanonaphtho[1,8-ab]heptalen-2-yl)benzo[b]thiophene-3-carbonitrile] | 0.534 nM | 1.15 nM | 0.321 nM | 1.15 nM | 5.29 nM | 10.6 nM | 0.537 nM | 40.2 nM |  |  |  | 
5 | N#Cc1c(N)sc2c(F)ccc(-c3nc4c5c(nc(OC[C@@]67CCCN6C[C@H](F)C7)nc5c3F)N3C[C@@]5(F)CC[C@](F)(N5)[C@@H]3CC4)c12 [Example 4-21, 2-amino-7-fluoro-4-((5aS,6R,9S)-1,6,9-trifluoro-12-(((2R,7aS)-2-fluorotetrahydro-1H-pyrrolizin-7a(5H)-yl)methoxy)-4,5,5a,6,7,8,9,10-octahydro-3,10a,11,13,14-pentaaza-6,9-methanonaphtho[1,8-ab]heptalen-2-yl)benzo[b]thiophene-3-carbonitrile] | 0.363 nM | 2.32 nM | 0.18 nM | 0.313 nM | 1.1 nM | 1.73 nM | 0.844 nM | 5.96 nM |  |  |  | 
6 | Oc1cc(-c2nc3c4c(nc(OCC56CCCN5CCC6)nc4c2F)N2C[C@@]4(F)CC[C@](F)(N4)[C@H]2CCC3)c2c(OC(F)(F)F)c(F)ccc2c1 [Example 4-23, 6-fluoro-4-[(4S,7R,8R)-4,7,15-trifluoro-18-(1,2,3,5,6,7-hexahydropyrrolizin-8-ylmethoxy)-2,13,17,19,21-pentazapentacyclo[10.7.1.14,7.02,8.016,20]henicosa-1(19),12(20),13,15,17-pentaen-14-yl]-5-(trifluoromethoxy)naphthalen-2-ol] | 0.592 nM | 3.65 nM | 0.502 nM | 1.19 nM | 6.87 nM | 2.6 nM | 2.14 nM | 51.4 nM |  |  |  | 
7 | Cn1ccc2cc(N)cc(-c3nc4c5c(nc(OCC67CCCN6CCC7)nc5c3F)N3C[C@@]5(F)CC[C@](F)(N5)[C@H]3CCC4)c2c1=O [Example 4-25] | > 100 nM | > 100 nM | > 100 nM | > 1000 nM | > 1000 nM | > 1000 nM | > 100 nM | > 1000 nM |  |  |  | 
8 | C/C=C\c1c(Cl)cc2[nH]ncc2c1-c1nc2c3c(nc(OCC45CCCN4CCC5)nc3c1F)N1C[C@@]3(F)CC[C@](F)(N3)[C@H]1CCC2 [Example 4-26, (4S,7R,8R)-14-[6-chloro-5-[(Z)-prop-1-enyl]-1H-indazol-4-yl]-4,7,15-trifluoro-18-(1,2,3,5,6,7-hexahydropyrrolizin-8-ylmethoxy)-2,13,17,19,21-pentazapentacyclo[10.7.1.14,7.02,8.016,20]henicosa-1(19),12(20),13,15,17-pentaene] | 1.24 nM | 6.69 nM | 1.85 nM | 0.785 nM | 31.4 nM | 4.34 nM | 4.33 nM | 45.4 nM |  |  |  | 
9 | C[C@H]1Cc2nc(-c3cc(O)cc4ccc(F)c(Cl)c34)c(F)c3nc(OCC45CCCN4CCC5)nc(c23)N2C[C@@]3(F)CC[C@](F)(N3)[C@H]12 [Example 4-30, 5-chloro-6-fluoro-4-((5S,5aS,6R,9S)-1,6,9-trifluoro-5-methyl-12-((tetrahydro-1H-pyrrolizin-7a(5H)-yl)methoxy)-4,5,5a,6,7,8,9,10-octahydro-3,10a,11,13,14-pentaaza-6,9-methanonaphtho[1,8-ab]heptalen-2-yl)naphthalen-2-ol] | 0.194 nM | 0.869 nM | 0.092 nM | 0.365 nM | 4.88 nM | 1.94 nM | 0.405 nM | 18 nM |  |  |  | 
10 | C#Cc1c(F)ccc2cc(N)cc(-c3nc4c5c(nc(OC[C@@]67CCCN6[C@H](COC(C(F)(F)F)(C(F)(F)F)C(F)(F)F)CC7)nc5c3F)N3C[C@@]5(F)CC[C@](F)(N5)[C@@H]3[C@@H](C)C4)c12 [Example 4-36, 5-ethynyl-6-fluoro-4-((5S,5aS,6R,9S)-1,6,9-trifluoro-12-(((3S,7aS)-3-(((1,1,1,3,3,3-hexafluoro-2-(trifluoromethyl)propan-2-yl)oxy)methyl)tetrahydro-1H-pyrrolizin-7a(5H)-yl)methoxy)-5-methyl-4,5,5a,6,7,8,9,10-octahydro-3,10a,11,13,14-pentaaza-6,9-methanonaphtho[1,8-ab]heptalen-2-yl)naphthalen-2-amine] | > 100 nM | > 100 nM | > 100 nM | > 1000 nM | > 1000 nM | 671 nM | > 100 nM | > 1000 nM |  |  |  | 
11 | C[C@H]1Cc2nc(-c3cc(N)cc4ccc(F)c(F)c34)c(F)c3nc(OCC45CCCN4CCC5)nc(c23)N2C[C@@]3(F)CC[C@](F)(N3)[C@H]12 [Example 5-1, 5,6-difluoro-4-((5S,5aS,6R,9S)-1,6,9-trifluoro-5-methyl-12-((tetrahydro-1H-pyrrolizin-7a(5H)-yl)methoxy)-4,5,5a,6,7,8,9,10-octahydro-3,10a,11,13,14-pentaaza-6,9-methanonaphtho[1,8-ab]heptalen-2-yl)naphthalen-2-amine] | 1.71 nM | 16 nM | 0.271 nM | 2.34 nM |  | 2.2 nM | 7.42 nM | 62.5 nM |  |  |  | 
